Source: patent US11008346B2, “Beta-lactamase inhibitors” (priority 2014, dated 2021)

Legend:
[1] = tested on: E. coli ESBL4 expressing CTX-M-15; experiment: broth microdilution MIC, E. coli CTX-M-15; format: cell-based; conditions: for MIC of exemplary compounds in presence of fixed β-lactams, E. coli ESBL4 CTX-M-15: Fixed CAZ (ceftazidime) 4 μg/mL
From the text: (§1) To determine the ability of test compounds to potentiate the inhibition of the growth of bacterial strains that produce beta-lactamase enzymes, classic cell based broth microdilution MIC assays were employed. Six bacteria strains producing beta-lactamase enzymes were used: E. coli expressing the Class A Extended Spectrum Beta-Lactamase (ESBL) CTX-M-15, E. cloacae expressing the Class C P99, K. pneumoniae expressing the Class A carbapenemase KPC-3, P. aeruginosa expressing the Class B carbapenemase VIM-2, K pneumoniae expressing the class A carbapenemase KPC-2 and the class B carbapenemase VIM-4, and S. aureus producing the Class A penicillinase PC-1. The assay was conducted in Cation Adjusted Mueller Hinton Broth (CAMHB, BD #212322, BD Diagnostic Systems, Sparks, Md.). Bacteria strains were grown for 3-5 hours in CAMBH broth. Test compounds were added to a microtiter plate in 2-fold serial dilutions in CAMHB in a final concentration range of 32 μg/mL to 0.25 μg/ml. An overlay of CAMHB containing a Beta-lactam was added to the compounds at a final static concentration of 4 μg/ml. […] In addition to the titration of test compounds the MICs of a panel of control beta-lactams is also tested to ensure the strains are behaving consistently from test to test. Once the test compound and antibiotics are added the plates can be inoculated according to CLSI broth microdilution method. After inoculation the plates are incubated for 16-20 hours at 37° C., then the Minimal Inhibitory Concentration (MIC) of the test compound is determined visually.
(§2) Using the methodology described above, examples of the current invention were evaluated for their ability to inhibit the growth of β-lactamase-producing bacteria in the presence of a β-lactam antibiotic.
(§3) Representative results are shown in Table 4 where A represents an MIC of the fixed β-lactam antibiotic in the presence of >32 µg/mL of a β-lactamase inhibitor of exemplary compounds, B represents the MIC in the presence of between 8 and 32 µg/mL of a β-lactamase inhibitor of exemplary compounds, and C represents the MIC in the presence of ≤4 µg/mL of a β-lactamase inhibitor of exemplary compounds. NT=Not Tested.

[2] = tested on: E. cloacae 144200 expressing Class C P99 AmpC; experiment: broth microdilution MIC, E. cloacae P99; format: cell-based; conditions: for MIC of exemplary compounds in presence of fixed β-lactams, E. cl. 144200 p99 AmpC: Fixed CAZ (ceftazidime) 4 μg/mL
From the text: as §1, §2, §3

[3] = tested on: K. pneumoniae 156319 expressing KPC-3; experiment: broth microdilution MIC, K. pneumoniae KPC-3; format: cell-based; conditions: Fixed Mero (meropenem) 4 μg/mL
From the text: as §1, §2, §3

[4] = tested on: K. pneumoniae A-1797 expressing KPC-2 and VIM-4; experiment: broth microdilution MIC, K. pneumoniae KPC-2 and VIM-4; format: cell-based; conditions: Fixed Mero (meropenem) 4 μg/mL
From the text: as §1, §2, §3

SHV-5 β-lactamase = biological target: T1, SHV-5 β-lactamase (Klebsiella pneumoniae, UniProt P0A3M1); experiment: β-lactamase enzyme inhibition, SHV-5; format: biochemical
T1 construct: made in house; host or cells: E. coli BL21(DE3)
Protocol: (§4) For SHV-5, Kpc-2, p99AmpC and OXA-1 β-lactamases, E. coli BL21(DE3) bacterial cells carrying expression plasmids (expressed as native untagged proteins) for the individual β-lactamases were grown in 1 L of Superbroth (Teknova Inc. Hollister, Calif.) supplemented with 100 μg/ml kanamycin selection and 1×5052 (0.5% glycerol, 0.05% glucose and 0.2% α-lactose) at 35° C. for 18-20 hours. Cells were harvested by centrifugation (4,000×g, 4° C., 20 min), resuspended in 50 ml of 10 mM HEPES pH 7.5 ( 1/20 of the initial volume). The cells were lysed by sonication (5 pulses of 45 seconds) at 45 W on ice. The lysates were clarified by centrifugation at 10,000×g for 40 minutes at 4° C. Samples were diluted 5-fold in 50 mM sodium acetate pH 5.0, stored overnight at 4° C., after which they were centrifuged at 10,000×g for 30 minutes to clarify, and filtered through 0.45 μm filters. The samples were loaded onto a 5 ml Capto S sepharose cation exchange column (GE Healthcare) pre-equilibrated with 50 mM sodium acetate pH 5.0. The column was washed with 5 column volumes of 50 mM sodium acetate pH 5.0 to wash out unbound protein and a linear gradient of NaCl (0 to 500 mM) was used to elute the protein (over 16 CV) from the column. Fractions were assayed for […] activity using Centa (Calbiochem, Gibbstown, N.J.) or Nitrocefin (EMD Millipore chemicals, Darmstadt, Germany) as a reporter β-lactamase substrate for activity in the isolated fractions. Active fractions were pooled, concentrated and further purified by gel filtration chromatography on a Superdex 75 prep grade gel filtration column (GE Healthcare, Piscataway, N.J.) pre-equilibrated in 50 mM Hepes pH 7.5, 150 mM NaCl. Active fractions were pooled, concentrated, and quantitated by BCA protein determination (Thermo Scientific, Rockford, Ill.), dialyzed into PBS and frozen at −80° C. in 20% glycerol until use.
(§5) An equal volume of diluted enzyme stock was added, and the plates were incubated at 37° C. for 15 min. Nitrocefin was used as substrate for p99 AmpC, VIM-2 and OXA-1 and dispensed into each well at a final concentration of 100 μM. Absorbance at 486 nm was immediately monitored for 10 min using a Biotek Powerwave XS2 microplate spectrophotometer using the GEN5 software package (Biotek Instruments, Winooski Vt.). In an analogous fashion, imipenem was used as substrate for KPC-2 and Cefotaxime was used for SHV-5, while changes in absorbance upon hydrolysis of the β-lactam ring were monitored at 300 nm and 260 nm respectively in UV-transparent 96-well microtiter assay plates. Maximum rates of hydrolysis were compared to those in control wells (without inhibitors), and percentages of enzyme inhibition were calculated for each concentration of inhibitor. The concentration of inhibitor needed to reduce the initial rate of hydrolysis of substrate by 50% (IC50) was calculated as the residual activity of β-lactamase at 486 nm using GraFit version 7 kinetics software package (Erithacus Software, Surrey, UK).
(§6) Using the methodology described above, examples of the current invention were evaluated for their ability to inhibit β-lactamase enzymes from all four Ambler classifications (A through D). […] NT=Not tested.

KPC-2 β-lactamase = biological target: T2, KPC-2 β-lactamase (Klebsiella pneumoniae, UniProt Q9F663); experiment: β-lactamase enzyme inhibition, KPC-2; format: biochemical; conditions: imipenem substrate, 300 nm; 15 min at 37° C. preincubation; read-out: IC50 KPC-2 (Class A)
T2 construct: made in house; host or cells: E. coli BL21(DE3)
Protocol: as §4, §5, §6

[5] = biological target: T3, VIM-2 metallo β-lactamase (Pseudomonas aeruginosa, UniProt Q9K2N0); experiment: β-lactamase enzyme inhibition, VIM-2; format: biochemical; conditions: Nitrocefin 100 μM, 486 nm; 15 min at 37° C. preincubation; read-out: IC50 VIM-2 (Class B)
T3 construct: made in house; host or cells: E. coli BL21(DE3)
Protocol: For VIM-2 metallo β-lactamase, the procedure was identical with the following exceptions, first the protein was not pH adjusted to pH 5 with 50 mM sodium acetate. Second, the chromatography step was changed to a 5 ml Q sepharose anion exchange column pre-equilibrated with 50 mM Hepes pH 7.5, and elution of the protein was achieved by a linear gradient of NaCl (0-600 mM). Finally, the VIM-2 purification required a second run (3rd step) on the Q sepharose anion exchange column to achieve acceptable purity (>90%).
as §5, §6

p99 AmpC β-lactamase = biological target: T4, p99 AmpC β-lactamase (Enterobacter cloacae, UniProt P05364); experiment: β-lactamase enzyme inhibition, p99 AmpC; format: biochemical
T4 construct: made in house; host or cells: E. coli BL21(DE3)
Protocol: as §4, §5
Using the methodology described above, examples of the current invention were evaluated for their ability to inhibit β-lactamase enzymes from all four Ambler classifications (A through D).

T1 sequence (P0A3M1 22-286): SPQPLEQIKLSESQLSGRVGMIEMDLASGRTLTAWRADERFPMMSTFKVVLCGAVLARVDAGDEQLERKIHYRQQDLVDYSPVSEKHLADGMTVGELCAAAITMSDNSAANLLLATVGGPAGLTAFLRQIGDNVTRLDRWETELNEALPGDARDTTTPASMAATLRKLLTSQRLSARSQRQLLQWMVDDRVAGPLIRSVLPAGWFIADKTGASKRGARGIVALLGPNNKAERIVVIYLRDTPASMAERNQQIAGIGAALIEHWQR
T4 sequence (P05364 21-381): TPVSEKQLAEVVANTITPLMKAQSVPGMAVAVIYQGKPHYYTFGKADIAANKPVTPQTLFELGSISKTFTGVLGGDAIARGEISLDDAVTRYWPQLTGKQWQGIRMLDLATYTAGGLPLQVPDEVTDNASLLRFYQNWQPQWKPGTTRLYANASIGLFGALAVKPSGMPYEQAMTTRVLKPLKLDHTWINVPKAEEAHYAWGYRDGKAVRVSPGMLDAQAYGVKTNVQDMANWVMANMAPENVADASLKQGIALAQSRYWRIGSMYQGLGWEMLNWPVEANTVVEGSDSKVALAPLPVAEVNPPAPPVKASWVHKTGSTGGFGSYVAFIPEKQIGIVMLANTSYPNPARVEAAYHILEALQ
T2 sequence (Q9F663 25-293, looked up): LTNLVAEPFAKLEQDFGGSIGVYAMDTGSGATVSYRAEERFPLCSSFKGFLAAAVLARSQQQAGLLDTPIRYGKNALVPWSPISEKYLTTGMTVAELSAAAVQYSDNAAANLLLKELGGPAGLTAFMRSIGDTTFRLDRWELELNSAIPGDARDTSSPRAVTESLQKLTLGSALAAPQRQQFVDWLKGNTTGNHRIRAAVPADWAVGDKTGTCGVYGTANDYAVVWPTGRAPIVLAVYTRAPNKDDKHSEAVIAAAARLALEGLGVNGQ

For CC(O)CCC(=O)N[C@H]1Cc2cccc(C(=O)O)c2OB1O (stereo partly drawn) [Example 63, (R)-2-Hydroxy-3-(4-hydroxy-pentanoylamino)-3,4-dihydro-2H-benzo[e][1,2]oxaborinine-8-carboxylic acid], the “MIC of exemplary compounds in presence of fixed β-lactams, E. coli ESBL4 CTX-M-15” value (shortened to “MIC … E. coli ESBL4 CTX-M-15”) [1] was “C (C represents the MIC in the presence of ≤4 g/mL of a β-lactamase inhibitor)”, the “MIC of exemplary compounds in presence of fixed β-lactams, E. cl. 144200 p99 AmpC” value (from here on “MIC … E. cl. 144200 p99 AmpC”) [2] was “C (C represents the MIC in the presence of ≤4 g/mL of a β-lactamase inhibitor)” and the “MIC of exemplary compounds in presence of fixed β-lactams, K.P. 156319 KPC-3” value (shortened to “MIC of exemplary compounds … K.P. 156319 KPC-3”) [3] was “C (C represents the MIC in the presence of ≤4 g/mL of a β-lactamase inhibitor)”. The “MIC of exemplary compounds in presence of fixed β-lactams, K.P. A-1797 KPC-2 VIM-4” value (shortened to “MIC … K.P. A-1797 KPC-2 VIM-4”) [4] was “B (B represents the MIC in the presence of between 8 and 32 g/mL of a β-lactamase inhibitor)”.

CNS(=O)(=O)CCC(=O)N[C@H]1Cc2cccc(C(=O)O)c2OB1O [Example 54, (R)-2-Hydroxy-3-(3-methylsulfamoyl-propionylamino)-3,4-dihydro-2H-benzo[e][1,2]oxaborinine-8-carboxylic acid] showed an IC50 (SHV-5 β-lactamase) of less than 100 nM, an IC50 (KPC-2 β-lactamase) of less than 100 nM and an IC50 [5] of 1000 to 10000 nM. For the same compound, the IC50 (p99 AmpC β-lactamase) was less than 100 nM, the “MIC … E. coli ESBL4 CTX-M-15” value [1] was “C (C represents the MIC in the presence of ≤4 g/mL of a β-lactamase inhibitor)” and the “MIC … E. cl. 144200 p99 AmpC” value [2] was “C (C represents the MIC in the presence of ≤4 g/mL of a β-lactamase inhibitor)”. The “MIC of exemplary compounds … K.P. 156319 KPC-3” value [3] was “C (C represents the MIC in the presence of ≤4 g/mL of a β-lactamase inhibitor)” and the “MIC … K.P. A-1797 KPC-2 VIM-4” value [4] was “B (B represents the MIC in the presence of between 8 and 32 g/mL of a β-lactamase inhibitor)”.

Work on CS(=O)(=O)CCCC(=O)N[C@H]1Cc2cccc(C(=O)O)c2OB1O [Example 59, (R)-2-Hydroxy-3-(4-methanesulfonyl-butyrylamino)-3,4-dihydro-2H-benzo[e][1,2]oxaborinine-8-carboxylic acid] yielded an IC50 (SHV-5 β-lactamase) of less than 100 nM, an IC50 (KPC-2 β-lactamase) of less than 100 nM and an IC50 [5] of 1000 to 10000 nM. For the same compound, the IC50 (p99 AmpC β-lactamase) was less than 100 nM, the “MIC … E. coli ESBL4 CTX-M-15” value [1] was “C (C represents the MIC in the presence of ≤4 g/mL of a β-lactamase inhibitor)” and the “MIC of exemplary compounds … K.P. 156319 KPC-3” value [3] was “C (C represents the MIC in the presence of ≤4 g/mL of a β-lactamase inhibitor)”. For the same compound, the “MIC … K.P. A-1797 KPC-2 VIM-4” value [4] was “B (B represents the MIC in the presence of between 8 and 32 g/mL of a β-lactamase inhibitor)”.

CC(C)(O/N=C(\C(=O)N[C@@H]1C(=O)N2C(C(=O)[O-])=C(C[n+]3ccccc3)CS[C@H]12)c1csc(N)n1)C(=O)O [Ceftazidime, ceftazidime, reference compound] gave an MIC ([1]; Escherichia coli, read-out: MIC alone) greater than 128 µg/mL and an MIC alone ([2]; partner antibiotic alone, E. cloacae expressing Class C P99) of 128 µg/mL.

CS(=O)(=O)NCCCC(=O)N[C@H]1Cc2cccc(C(=O)O)c2OB1O [Example 57, (R)-2-Hydroxy-3-(4-methanesulfonylamino-butyrylamino)-3,4-dihydro-2H-benzo[e][1,2]oxaborinine-8-carboxylic acid] showed an IC50 (SHV-5 β-lactamase) of less than 100 nM, an IC50 (KPC-2 β-lactamase) of less than 100 nM and an IC50 [5] of 1000 to 10000 nM. The IC50 (p99 AmpC β-lactamase) was less than 100 nM, the “MIC … E. coli ESBL4 CTX-M-15” value [1] was “C (C represents the MIC in the presence of ≤4 g/mL of a β-lactamase inhibitor)” and the “MIC of exemplary compounds … K.P. 156319 KPC-3” value [3] was “C (C represents the MIC in the presence of ≤4 g/mL of a β-lactamase inhibitor)”. The “MIC … K.P. A-1797 KPC-2 VIM-4” value [4] was “B (B represents the MIC in the presence of between 8 and 32 g/mL of a β-lactamase inhibitor)”.

With CNS(=O)(=O)CCCC(=O)N[C@H]1Cc2cccc(C(=O)O)c2OB1O [Example 58, (R)-2-Hydroxy-3-(4-methylsulfamoyl-butyrylamino)-3,4-dihydro-2H-benzo[e][1,2]oxaborinine-8-carboxylicacid] the IC50 (SHV-5 β-lactamase) was less than 100 nM, the IC50 (KPC-2 β-lactamase) was less than 100 nM and the IC50 [5] was 1000 to 10000 nM. For the same compound, the IC50 (p99 AmpC β-lactamase) was less than 100 nM, the “MIC … E. coli ESBL4 CTX-M-15” value [1] was “C (C represents the MIC in the presence of ≤4 g/mL of a β-lactamase inhibitor)” and the “MIC of exemplary compounds … K.P. 156319 KPC-3” value [3] was “C (C represents the MIC in the presence of ≤4 g/mL of a β-lactamase inhibitor)”. For the same compound, the “MIC … K.P. A-1797 KPC-2 VIM-4” value [4] was “B (B represents the MIC in the presence of between 8 and 32 g/mL of a β-lactamase inhibitor)”.

With O=C(Cc1ccncc1)N[C@H]1Cc2cccc(C(=O)O)c2OB1O [Example 65, (R)-2-Hydroxy-3-(2-pyridin-4-yl-acetylamino)-3,4-dihydro-2H-benzo[e][1,2]oxaborinine-8-carboxylic acid] the IC50 (SHV-5 β-lactamase) was less than 100 nM, the IC50 (KPC-2 β-lactamase) was less than 100 nM and the IC50 (p99 AmpC β-lactamase) was less than 100 nM. For the same compound, the “MIC … E. coli ESBL4 CTX-M-15” value [1] was “C (C represents the MIC in the presence of ≤4 g/mL of a β-lactamase inhibitor)”, the “MIC … E. cl. 144200 p99 AmpC” value [2] was “C (C represents the MIC in the presence of ≤4 g/mL of a β-lactamase inhibitor)” and the “MIC of exemplary compounds … K.P. 156319 KPC-3” value [3] was “C (C represents the MIC in the presence of ≤4 g/mL of a β-lactamase inhibitor)”. The “MIC … K.P. A-1797 KPC-2 VIM-4” value [4] was “C (C represents the MIC in the presence of ≤4 g/mL of a β-lactamase inhibitor)”.
